Test results taken from PubChem BioAssay (NCI).
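How tested: cells in 96-well plates exposed to compound for 48 hours at five concentrations. TGI denotes the concentration required for complete inhibition of growth.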

Tests used:
Experiment in all cases: growth of human tumour cells (NCI), 48 h
[1] = tested on: SW-620 colon
[2] = tested on: UACC-62 melanoma
[3] = tested on: EKVX NSCLC
[4] = tested on: HOP-92 NSCLC
[5] = tested on: MALME-3M melanoma
[6] = tested on: PC-3 prostate
[7] = tested on: SF-539 CNS
[8] = tested on: OVCAR-3 ovarian
[9] = tested on: NCI/ADR-RES ovarian
[10] = tested on: IGROV1 ovarian
[11] = tested on: UO-31 renal
[12] = tested on: HOP-62 NSCLC
[13] = tested on: K-562 leukemia
[14] = tested on: NCI-H460 lung
[15] = tested on: SF-268 CNS
[16] = tested on: NCI-H522 lung
[17] = tested on: COLO 205 colon
[18] = tested on: MCF7 breast
[19] = tested on: MDA-N
[20] = tested on: CCRF-CEM leukemia
[21] = tested on: UACC-257 melanoma
[22] = tested on: DU-145 prostate
[23] = tested on: TK-10 renal
[24] = tested on: A498 renal
[25] = tested on: SK-MEL-28 melanoma
[26] = tested on: SNB-19 CNS
[27] = tested on: OVCAR-5 ovarian
[28] = tested on: OVCAR-8 ovarian
[29] = tested on: HCT-15 colon
[30] = tested on: SK-OV-3 ovarian
[31] = tested on: MDA-MB-231 breast
[32] = tested on: SF-295 CNS
[33] = tested on: SN12C renal
[34] = tested on: A549 NSCLC
[35] = tested on: M14 melanoma
[36] = tested on: NCI-H23 lung
[37] = tested on: LOX IMVI melanoma
[38] = tested on: T-47D breast
[39] = tested on: HT29 colon
[40] = tested on: MOLT-4 leukemia
[41] = tested on: RPMI-8226 leukemia
[42] = tested on: SNB-75 CNS
[43] = tested on: RXF 393 renal
[44] = tested on: MDA-MB-435
[45] = tested on: KM12 colon
[46] = tested on: ACHN renal
[47] = tested on: U251 CNS
[48] = tested on: SK-MEL-5 melanoma
[49] = tested on: 786-0 renal
[50] = tested on: HL-60(TB) leukemia
[51] = tested on: HCT-116 colon
[52] = tested on: HS 578T breast
[53] = tested on: SK-MEL-2 melanoma
[54] = tested on: SR leukemia
[55] = tested on: BT-549 breast
[56] = tested on: HCC-2998 colon
[57] = tested on: CAKI-1 renal

Cc1cn2c(/C=C3/C(=O)Nc4ccccc43)c(-c3ccccc3)nc2s1
TGI [1]: > 100 µM | TGI [2]: > 100 µM | TGI [3]: > 100 µM | TGI [4]: > 100 µM | TGI [5]: > 100 µM | TGI [6]: > 100 µM | TGI [7]: 41.7 µM | TGI [8]: > 100 µM | TGI [9]: > 100 µM | TGI [10]: > 100 µM | TGI [11]: 61.2 µM | TGI [12]: > 100 µM | TGI [13]: > 100 µM | TGI [14]: > 100 µM | TGI [15]: > 100 µM | TGI [16]: > 100 µM | TGI [17]: > 100 µM | TGI [18]: > 100 µM | TGI [19]: > 100 µM | TGI [20]: > 100 µM | TGI [21]: > 100 µM | TGI [22]: > 100 µM | TGI [23]: 51.2 µM | TGI [24]: > 100 µM | TGI [25]: > 100 µM | TGI [26]: 55.4 µM | TGI [27]: > 100 µM | TGI [28]: > 100 µM | TGI [29]: > 100 µM | TGI [30]: 76.4 µM | TGI [31]: 57.7 µM | TGI [32]: > 100 µM | TGI [33]: > 100 µM | TGI [34]: > 100 µM | TGI [35]: > 100 µM | TGI [36]: > 100 µM | TGI [37]: > 100 µM | TGI [38]: > 100 µM | TGI [39]: > 100 µM | TGI [40]: > 100 µM | TGI [41]: > 100 µM | TGI [42]: 66.8 µM | TGI [43]: 55.2 µM | TGI [44]: > 100 µM | TGI [45]: > 100 µM | TGI [46]: > 100 µM | TGI [47]: > 100 µM | TGI [48]: > 100 µM | TGI [49]: 42.4 µM | TGI [50]: > 100 µM | TGI [51]: > 100 µM | TGI [52]: 91 µM | TGI [53]: 78.1 µM | TGI [54]: > 100 µM | TGI [55]: > 100 µM | TGI [56]: > 100 µM | TGI [57]: > 100 µM
